Columns and labels:
[1] = system: EBOV-GP-pseudotype virus (pEBOV)
[2] = system: EBOV-GP-pseudotype virus (pEBOV); assay: microbe, parasite or virus in culture; conditions: Zaire ebolavirus; for inhibition at 10 µM: Vero C1008, read-out: %inh@10 μM (pEBOV); for EC50: Vero C1008, read-out: EC50 (pEBOV)
in vitro [3] = conditions: for CC50: African green monkey; for CC50 at 24 h: chlorocebus sabaeus
in vitro [4] = conditions: CD-1, mouse, microsomes, pH 7.4
[5] = system: wild-type EBOV (Orthoebolavirus zairense, Mayinga variant); conditions: for EC50: read-out: EC50 (EBOV)
in vitro [6] = conditions: human, microsomes, pH 7.4
[7] = system: VSV-G-pseudotype virus (pVSV-G); assay: microbe, parasite or virus in culture; assay type: cell-based; conditions: Vesicular stomatitis virus; read-out: %inh@10µM (pVSV-G)
[8] = PAMPA
[9] = CD-1, mouse, pH 7.4
[10] = pH 7.4
EBOV-GP protein = EBOV-GP protein (Zaire ebolavirus, UniProt Q05320); assay type: binding, Ebola virus
[11] = molecular target: EBOV-GPcl/NPC1-domain C interaction (Zaire ebolavirus, UniProt Q05320); assay type: binding; conditions: 50 μM

Row | Compound | antiviral activity against pEBOV, in words [1] | inhibition at 10 µM [2] [%] | CC50 (in vitro [3]) [µM] | half-life at 10 µM (in vitro [4]) [min] | SI (CC50/EC50), replicative EBOV [5] | EC50 [5] [µM] | half-life at 10 µM (in vitro [6]) [min] | inhibition at 10 µM [7] [%] | prediction of CNS penetration [8] | metabolic stability in mouse liver microsomes CLint [9] [mL/min/mg protein] | SI (pEBOV) (CC50/EC50) [1] | EC50 [2] [µM] | CC50 at 24 h (in vitro [3]) [µM] | metabolic stability in human liver microsomes CLint [10] [mL/min/mg protein] | EC50 (EBOV) [5] | STD-NMR competition with imipramine (EBOV-GP protein) | binding to EBOV-GP by STD-NMR (EBOV-GP protein) | effect on binding of EBOV-GP to NPC1 domain C (ELISA) [11] | increase in metabolic stability in human microsomes [10] [%]
1 | O=C(CN1CCCCC1)Nc1ccccc1Sc1cc(Cl)ccc1[N+](=O)[O-] [compound 9, N-(2-((5-Chloro-2-nitrophenyl)thio)phenyl)-2-(piperidin-1-yl)acetamide] | no activity | -10 | > 200 |  |  |  |  |  |  |  |  |  |  |  |  |  |  |  | 
2 | O=C(CNCc1ccccc1)Nc1ccccc1Sc1cc(Cl)ccc1[N+](=O)[O-] [compound 10, 2-(Benzylamine)-N-(2-((5-chloro-2-nitrophenyl)thio)phenyl)acetamide] | no activity | 18 | > 200 |  |  |  |  |  |  |  |  |  |  |  |  |  |  |  | 
3 | O=C(CNCCC1CCN(Cc2ccccc2)CC1)Nc1ccccc1Sc1cc(Cl)ccc1[N+](=O)[O-] [compound 11, 2-((2-(1-Benzylpiperidin-4-yl)ethyl)amino)-N-(2-((5-chloro-2-nitrophenyl)thio)phenyl)acetamide] |  |  |  | 6 ± 1 | 28.8 | 5.2 | 23 ± 4 | 38 | SNC + | 390 ± 70 | 26.7 | 5.61 | 150 | 25 ± 4 |  |  |  |  | 
4 | O=C(CCN1CCCC1)Nc1ccccc1Sc1cc(Cl)ccc1[N+](=O)[O-] [compound 12, N-(2-((5-Chloro-2-nitrophenyl)thio)phenyl)-3-(pyrrolidin-1-yl)propanamide] |  |  |  | 10 ± 3 |  |  | 46 ± 2 | 36 | SNC + | 260 ± 80 | 61.2 | 4.9 | 300 | 12.5 ± 0.6 | inactive |  |  |  | 
5 | CCN(CC)CCC(=O)Nc1ccccc1Sc1cc(Cl)ccc1[N+](=O)[O-] [compound 13, N-(2-((5-Chloro-2-nitrophenyl)thio)phenyl)-3-(diethylamino)propanamide] |  |  |  | 6.4 ± 0.9 | 3.3 | 44.5 | 16 ± 3 | -5 | SNC + | 390 ± 60 | 16.9 | 8.87 | 150 | 36 ± 8 |  |  |  |  | 
6 | O=C(CCNCCc1ccccc1)Nc1ccccc1Sc1cc(Cl)ccc1[N+](=O)[O-] [compound 14, N-(2-((5-Chloro-2-nitrophenyl)thio)phenyl)-3-(phenethylamino)propanamide] | no activity | 23 | > 200 |  |  |  |  |  |  |  |  |  |  |  |  |  |  |  | 
7 | O=C(CCNCCC1CCN(Cc2ccccc2)CC1)Nc1ccccc1Sc1cc(Cl)ccc1[N+](=O)[O-] [compound 15, 3-((2-(1-Benzylpiperidin-4-yl)ethyl)amino)-N-(2-((5-chloro-2-nitrophenyl)thio)phenyl)propanamide] | no activity | < 75 |  |  |  |  |  |  |  |  |  |  | 9 |  |  |  |  |  | 
8 | O=C(CNCCC1CCN(Cc2ccccc2)CC1)Nc1ccccc1Nc1cc(Cl)ccc1[N+](=O)[O-] [compound 16, 2-((2-(1-Benzylpiperidin-4-yl)ethyl)amino)-N-(2-((5-chloro-2-nitrophenyl)amino)phenyl)acetamide] |  |  |  | 8 ± 1 |  | 4.42 | 47 ± 7 | -44 | SNC + | 310 ± 50 |  | 2.43 | 10 | 12 ± 2 |  | both compounds target the same binding site of EBOV-GP | binds to the protein | interferes with the interaction between NPC1 and EBOV-GP | 105
9 | O=C(CCN1CCCC1)Nc1ccccc1Nc1cc(Cl)ccc1[N+](=O)[O-] [compound 17, N-(2-((5-Chloro-2-nitrophenyl)amino)phenyl)-3-(pyrrolidin-1-yl)propanamide] |  |  |  | 20 ± 3 | 38.5 | 6.48 | 136.2 ± 0.5 | -133 | SNC + | 130 ± 17 | 27.9 | 8.94 | 250 | 4.19 ± 0.02 |  |  |  |  | 195
10 | CCN(CC)CCC(=O)Nc1ccccc1Nc1cc(Cl)ccc1[N+](=O)[O-] [compound 18, N-(2-((5-Chloro-2-nitrophenyl)amino)phenyl)-3-(diethylamino)propanamide] |  |  |  | 14 ± 6 | 5.2 | 28.7 | 63 ± 5 | 9 | SNC + | 180 ± 70 | 19.6 | 7.65 | 150 | 9.1 ± 0.7 |  |  |  |  | 294
11 | O=C(CCNCCc1ccccc1)Nc1ccccc1Nc1cc(Cl)ccc1[N+](=O)[O-] [compound 19, N-(2-((5-Chloro-2-nitrophenyl)amino)phenyl)-3-(phenethylamino)propanamide] | inactive | 15 |  |  |  |  |  |  |  |  |  |  | 15 |  |  |  |  |  | 

From PMC12169679 (Journal of Medicinal Chemistry, 2025)
